Results published in PubChem BioAssay (NCI).
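Grown in 96-well plates, cells were treated for 48 hours with each compound at five concentrations. Insufficient inhibition: endpoint recorded as highest concentration tested. At the GI50, growth is halved. TGI is the concentration that stops growth completely.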

Columns and labels:
Test in all cases: inhibition of tumour cell growth, NCI panel, 48 h
NCI/ADR-RES ovarian = test system: NCI/ADR-RES ovarian
U251 CNS = test system: U251 CNS
PC-3 prostate = test system: PC-3 prostate
MDA-MB-231 breast = test system: MDA-MB-231 breast
UACC-257 melanoma = test system: UACC-257 melanoma
MOLT-4 leukemia = test system: MOLT-4 leukemia
HS 578T breast = test system: HS 578T breast
ACHN renal = test system: ACHN renal
RPMI-8226 leukemia = test system: RPMI-8226 leukemia
BT-549 breast = test system: BT-549 breast
A498 renal = test system: A498 renal
CCRF-CEM leukemia = test system: CCRF-CEM leukemia
SK-OV-3 ovarian = test system: SK-OV-3 ovarian
COLO 205 colon = test system: COLO 205 colon
IGROV1 ovarian = test system: IGROV1 ovarian
TK-10 renal = test system: TK-10 renal
RXF 393 renal = test system: RXF 393 renal
HOP-92 NSCLC = test system: HOP-92 NSCLC
LOX IMVI melanoma = test system: LOX IMVI melanoma
MDA-MB-435 = test system: MDA-MB-435
SNB-19 CNS = test system: SNB-19 CNS
SF-295 CNS = test system: SF-295 CNS
NCI-H522 lung = test system: NCI-H522 lung
UACC-62 melanoma = test system: UACC-62 melanoma
SF-268 CNS = test system: SF-268 CNS
OVCAR-8 ovarian = test system: OVCAR-8 ovarian
HCT-15 colon = test system: HCT-15 colon
OVCAR-5 ovarian = test system: OVCAR-5 ovarian
NCI-H23 lung = test system: NCI-H23 lung
M14 melanoma = test system: M14 melanoma
SNB-75 CNS = test system: SNB-75 CNS
HOP-62 NSCLC = test system: HOP-62 NSCLC
SK-MEL-2 melanoma = test system: SK-MEL-2 melanoma
KM12 colon = test system: KM12 colon
SK-MEL-28 melanoma = test system: SK-MEL-28 melanoma
A549 NSCLC = test system: A549 NSCLC
SK-MEL-5 melanoma = test system: SK-MEL-5 melanoma
T-47D breast = test system: T-47D breast
OVCAR-3 ovarian = test system: OVCAR-3 ovarian
NCI-H460 lung = test system: NCI-H460 lung
SR leukemia = test system: SR leukemia
HCT-116 colon = test system: HCT-116 colon
K-562 leukemia = test system: K-562 leukemia
SF-539 CNS = test system: SF-539 CNS
UO-31 renal = test system: UO-31 renal
MALME-3M melanoma = test system: MALME-3M melanoma
MCF7 breast = test system: MCF7 breast
OVCAR-4 ovarian = test system: OVCAR-4 ovarian
HCC-2998 colon = test system: HCC-2998 colon
NCI-H226 lung = test system: NCI-H226 lung
MDA-MB-468 breast = test system: MDA-MB-468 breast
SN12C renal = test system: SN12C renal
CAKI-1 renal = test system: CAKI-1 renal
SW-620 colon = test system: SW-620 colon
EKVX NSCLC = test system: EKVX NSCLC
DU-145 prostate = test system: DU-145 prostate
HL-60(TB) leukemia = test system: HL-60(TB) leukemia

## COc1cccc2nc(Nc3cccc(NC(=O)c4ccc(CN5CCN(C)CC5)c(C(F)(F)F)c4)c3)ccc12
NCI/ADR-RES ovarian
  GI50: 2.28 µM
  TGI: 5.95 µM
U251 CNS
  GI50: 1.92 µM
  TGI: 3.71 µM
PC-3 prostate
  GI50: 1.7 µM
  TGI: 4.46 µM
MDA-MB-231 breast
  GI50: 1.77 µM
  TGI: 3.39 µM
UACC-257 melanoma
  GI50: 1.98 µM
  TGI: 3.85 µM
MOLT-4 leukemia
  GI50: 1.45 µM
  TGI: 7.59 µM
HS 578T breast
  GI50: 1.84 µM
  TGI: 4.57 µM
ACHN renal
  GI50: 2.05 µM
  TGI: 4.4 µM
RPMI-8226 leukemia
  GI50: 2.78 µM
  TGI: 8.34 µM
BT-549 breast
  GI50: 7.01 µM
  TGI: 19.2 µM
A498 renal
  GI50: 2 µM
  TGI: 4.98 µM
CCRF-CEM leukemia
  GI50: 2.1 µM
  TGI: 6.43 µM
SK-OV-3 ovarian
  GI50: 9.22 µM
  TGI: 22.6 µM
COLO 205 colon
  GI50: 1.79 µM
  TGI: 3.38 µM
IGROV1 ovarian
  GI50: 2.25 µM
  TGI: 4.82 µM
TK-10 renal
  GI50: 2.15 µM
  TGI: 4.65 µM
RXF 393 renal
  GI50: 1.73 µM
  TGI: 3.96 µM
HOP-92 NSCLC
  GI50: 1.5 µM
  TGI: 3.86 µM
LOX IMVI melanoma
  GI50: 1.74 µM
  TGI: 3.26 µM
MDA-MB-435
  GI50: 1.68 µM
  TGI: 3.21 µM
SNB-19 CNS
  GI50: 1.78 µM
  TGI: 3.38 µM
SF-295 CNS
  GI50: 1.77 µM
  TGI: 3.31 µM
NCI-H522 lung
  GI50: 1.79 µM
  TGI: 3.65 µM
UACC-62 melanoma
  GI50: 1.75 µM
  TGI: 3.22 µM
SF-268 CNS
  GI50: 1.69 µM
  TGI: 3.75 µM
OVCAR-8 ovarian
  GI50: 3.09 µM
  TGI: 10.7 µM
HCT-15 colon
  GI50: 1.78 µM
  TGI: 3.56 µM
OVCAR-5 ovarian
  GI50: 1.84 µM
  TGI: 3.71 µM
NCI-H23 lung
  GI50: 1.91 µM
  TGI: 3.73 µM
M14 melanoma
  GI50: 1.76 µM
  TGI: 3.63 µM
SNB-75 CNS
  GI50: 1.6 µM
  TGI: 4.37 µM
HOP-62 NSCLC
  GI50: 1.56 µM
  TGI: 3.11 µM
SK-MEL-2 melanoma
  GI50: 3.52 µM
  TGI: 12.2 µM
KM12 colon
  GI50: 2.13 µM
  TGI: 4.59 µM
SK-MEL-28 melanoma
  GI50: 1.71 µM
  TGI: 3.13 µM
A549 NSCLC
  GI50: 2.44 µM
  TGI: 7.8 µM
SK-MEL-5 melanoma
  GI50: 1.62 µM
  TGI: 3.02 µM
T-47D breast
  GI50: 2.28 µM
  TGI: 5.78 µM
OVCAR-3 ovarian
  GI50: 2.15 µM
  TGI: 5.17 µM
NCI-H460 lung
  GI50: 1.71 µM
  TGI: 3.19 µM
SR leukemia
  GI50: 1.85 µM
  TGI: 5.65 µM
HCT-116 colon
  GI50: 1.82 µM
  TGI: 3.57 µM
K-562 leukemia
  GI50: 2.7 µM
  TGI: > 100 µM
SF-539 CNS
  GI50: 1.64 µM
  TGI: 3.01 µM
UO-31 renal
  GI50: 1.64 µM
  TGI: 3.18 µM
MALME-3M melanoma
  GI50: 1.65 µM
  TGI: 3.08 µM
MCF7 breast
  GI50: 1.57 µM
  TGI: 3.2 µM
OVCAR-4 ovarian
  GI50: 2.21 µM
  TGI: 5.94 µM
HCC-2998 colon
  GI50: 1.99 µM
  TGI: 3.45 µM
NCI-H226 lung
  GI50: 4.63 µM
  TGI: 15.8 µM
MDA-MB-468 breast
  GI50: 1.92 µM
  TGI: 3.89 µM
SN12C renal
  GI50: 1.71 µM
  TGI: 3.3 µM
CAKI-1 renal
  GI50: 1.81 µM
  TGI: 4.13 µM
SW-620 colon
  GI50: 1.73 µM
  TGI: 3.27 µM
EKVX NSCLC
  GI50: 2.1 µM
  TGI: 4.71 µM
DU-145 prostate
  GI50: 1.98 µM
  TGI: 4.42 µM
HL-60(TB) leukemia
  GI50: 1.22 µM
  TGI: 4.09 µM
